Each molecule was assayed against SIRT6 enzyme (Homo sapiens, UniProt Q8N6T7) (assay: Measurement of deacetylation activity (SIRT6, AlphaLISA, H3K9(Ac) peptide)). Settings: SIRT6 25 ng/mL, H3K9(Ac) biotin peptide 2 nM, NAD 10 μM, room temperature 30 minutes, duplicate.
Sequence of SIRT6 enzyme (Q8N6T7 whole entry, species assumed): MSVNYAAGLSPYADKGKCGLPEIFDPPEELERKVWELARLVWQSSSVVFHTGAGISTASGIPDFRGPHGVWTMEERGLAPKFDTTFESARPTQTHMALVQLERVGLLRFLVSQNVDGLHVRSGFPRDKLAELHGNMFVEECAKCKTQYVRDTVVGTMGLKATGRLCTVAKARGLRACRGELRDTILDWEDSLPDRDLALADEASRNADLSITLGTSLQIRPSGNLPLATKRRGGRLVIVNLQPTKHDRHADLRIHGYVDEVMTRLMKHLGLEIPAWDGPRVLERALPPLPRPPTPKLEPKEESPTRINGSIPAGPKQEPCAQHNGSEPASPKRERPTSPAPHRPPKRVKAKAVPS
Type: biochemical
Outline: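 SIRT6 (25 ng/mL final) in Tris-HCl pH 8.0 buffer with compound (e.g. 0.046–100 μM final) reacted with biotin-H3K9(Ac) peptide (2 nM) and NAD+ (10 μM), 30 min, room temperature. Stopped with nicotinamide plus AlphaLISA anti-unmodified H3K9/K27 beads, 60 min; EC150 (150% relative activity) from sigmoidal fit.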
With `COc1cccc(-c2cc(N3[C@@H]4COC[C@H]3c3sc(NC(=O)NC5CCOCC5)nc3C4)no2)n1` [Example 62, N-{(4S,8S)-10-[5-(6-methoxypyridin-2-yl)-1,2-oxazol-3-yl]-4,7,8,9-tetrahydro-5H-4,8-epiminooxocino[5,4-d][1,3]thiazol-2-yl}-N′-oxan-4-ylurea] the “EC150 (the concentration of the compound showing a relative enzyme activity of 150%)” value was 2.6 μm.
`C[C@@H](O)CNC(=O)Nc1nc2c(s1)[C@@H]1COC[C@H](C2)N1c1ncc(-c2cccc(C(F)F)c2)o1` [Example 72, N-[(4S,8S)-10-{5-[3-(difluoromethyl)phenyl]-1,3-oxazol-2-yl}-4,7,8,9-tetrahydro-5H-4,8-epiminooxocino[5,4-d][1,3]thiazol-2-yl]-N′-[(2R)-2-hydroxypropyl]urea] was tested, and the “EC150 (the concentration of the compound showing a relative enzyme activity of 150%)” value was 0.36 μm.
In the case of `CNC(=O)Nc1nc2c(s1)CN(c1nc(C3CCCC(F)(F)C3)no1)CC2` (centres unmarked) [Example 36, N-{5-[3-(3,3-difluorocyclohexyl)-1,2,4-oxadiazol-5-yl]-4,5,6,7-tetrahydro[1,3]thiazolo[5,4-c]pyridin-2-yl}-N′-methylurea], the “EC150 (the concentration of the compound showing a relative enzyme activity of 150%)” value is reported as 1.9 μm.
`C[C@H](CO)NC(=O)Nc1nc2c(s1)[C@@H]1COC[C@H](C2)N1c1nc2cc(F)ccc2o1` [Example 39, N-[(4S,8S)-10-(5-fluoro-1,3-benzoxazol-2-yl)-4,7,8,9-tetrahydro-5H-4,8-epiminooxocino[5,4-d][1,3]thiazol-2-yl]-N′-[(2R)-1-hydroxypropan-2-yl]urea] was tested, and the “EC150 (the concentration of the compound showing a relative enzyme activity of 150%)” value was 2.5 μm.
For `CNC(=O)Nc1nc2c(s1)C1CN(C(C)=O)CC(C2)N1c1ncc(-c2cccc(Cl)c2)o1` (centres unmarked) [Example 139, N-{6-acetyl-10-[5-(3-chlorophenyl)-1,3-oxazol-2-yl]-4,5,6,7,8,9-hexahydro-4,8-epimino[1,3]thiazolo[5,4-d]azocin-2-yl}-N′-methylurea], the “EC150 (the concentration of the compound showing a relative enzyme activity of 150%)” value was 0.36 μm.
With `O=C(NCc1cc[nH]c(=O)c1)Nc1nc2c(s1)CN(c1nc(C3CCC(F)(F)CC3)no1)CC2` [Example 101, N-{5-[3-(4,4-difluorocyclohexyl)-1,2,4-oxadiazol-5-yl]-4,5,6,7-tetrahydro[1,3]thiazolo[5,4-c]pyridin-2-yl}-N′-[(2-oxo-1,2-dihydropyridin-4-yl)methyl]urea] the “EC150 (the concentration of the compound showing a relative enzyme activity of 150%)” value was 1.1 μm.
In the case of `CC(C)(O)CNC(=O)Nc1nc2c(s1)CN(c1nc(C34CC(C(F)F)(C3)C4)no1)CC2` [Example 96, N-(5-{3-[3-(difluoromethyl)bicyclo[1.1.1]pentan-1-yl]-1,2,4-oxadiazol-5-yl}-4,5,6,7-tetrahydro[1,3]thiazolo[5,4-c]pyridin-2-yl)-N′-(2-hydroxy-2-methylpropyl)urea], the “EC150 (the concentration of the compound showing a relative enzyme activity of 150%)” value is reported as 1.6 μm.
With `C[C@H](CO)NC(=O)Nc1nc2c(s1)CN(c1nc(C(C)(C)OCC(F)(F)F)no1)CC2` [Example 91, N-[(2R)-1-hydroxypropan-2-yl]-N′-(5-{3-[2-(2,2,2-trifluoroethoxy)propan-2-yl]-1,2,4-oxadiazol-5-yl}-4,5,6,7-tetrahydro[1,3]thiazolo[5,4-c]pyridin-2-yl)urea] the “EC150 (the concentration of the compound showing a relative enzyme activity of 150%)” value was 0.81 μm.
In the case of `O=C(Nc1nc2c(s1)[C@@H]1COC[C@H](C2)N1c1nc(-c2ccc(F)cc2)no1)N[C@H]1C[C@H](O)C1` [Example 86, N-{(4S,8S)-10-[3-(4-fluorophenyl)-1,2,4-oxadiazol-5-yl]-4,7,8,9-tetrahydro-5H-4,8-epiminooxocino[5,4-d][1,3]thiazol-2-yl}-N′-[(1r,3S)-3-hydroxycyclobutyl]urea], the “EC150 (the concentration of the compound showing a relative enzyme activity of 150%)” value is reported as 0.25 μm.
For `[2H]C([2H])([2H])Oc1ccc2oc(N3[C@@H]4COC[C@H]3c3sc(NC(=O)NCC(C)(C)O)nc3C4)nc2c1` [Example 60, N-(2-hydroxy-2-methylpropyl)-N′-[(4S,8S)-10-{5-[(^2H3)methyloxy]-1,3-benzoxazol-2-yl}-4,7,8,9-tetrahydro-5H-4,8-epiminooxocino[5,4-d][1,3]thiazol-2-yl]urea], the “EC150 (the concentration of the compound showing a relative enzyme activity of 150%)” value was 1.7 μm.
With `C[C@@H](O)CNC(=O)Nc1nc2c(s1)[C@@H]1COC[C@H](C2)N1c1ncc(-c2cccc(OC(F)F)c2)o1` [Example 171, N-[(4S,8S)-10-{5-[3-(difluoromethoxy)phenyl]-1,3-oxazol-2-yl}-4,7,8,9-tetrahydro-5H-4,8-epiminooxocino[5,4-d][1,3]thiazol-2-yl]-N′-[(2R)-2-hydroxypropyl]urea] the “EC150 (the concentration of the compound showing a relative enzyme activity of 150%)” value was 0.55 μm.
In the case of `CNC(=O)Nc1nc2c(s1)CN(c1nc(-c3cccc(OC(F)(F)F)c3)no1)CC2` [Example 8, N-methyl-N′-(5-{3-[3-(trifluoromethoxy)phenyl]-1,2,4-oxadiazol-5-yl}-4,5,6,7-tetrahydro[1,3]thiazolo[5,4-c]pyridin-2-yl)urea], the “EC150 (the concentration of the compound showing a relative enzyme activity of 150%)” value is reported as 3.6 μm.
With `COc1nc(-c2cnc(N3[C@@H]4COC[C@H]3c3sc(NC(=O)N[C@H](C)CO)nc3C4)o2)ccc1C` [Example 193, N-[(2R)-1-hydroxypropan-2-yl]-N′-{(4S,8S)-10-[5-(6-methoxy-5-methylpyridin-2-yl)-1,3-oxazol-2-yl]-4,7,8,9-tetrahydro-5H-4,8-epiminooxocino[5,4-d][1,3]thiazol-2-yl}urea] the “EC150 (the concentration of the compound showing a relative enzyme activity of 150%)” value was 1.8 μm.
`CC(C)(O)CNC(=O)Nc1nc2c(s1)[C@@H]1COC[C@H](C2)N1c1nc2cc(C(F)F)ccc2o1` [Example 53, N-{(4S,8S)-10-[5-(difluoromethyl)-1,3-benzoxazol-2-yl]-4,7,8,9-tetrahydro-5H-4,8-epiminooxocino[5,4-d][1,3]thiazol-2-yl}-N′-(2-hydroxy-2-methylpropyl)urea] was tested, and the “EC150 (the concentration of the compound showing a relative enzyme activity of 150%)” value was 0.29 μm.
For `CNC(=O)Nc1nc2c(s1)C1CN(C(=O)OC(C)C)CC(C2)N1c1nc(-c2ccc(F)cc2)no1` (centres unmarked) [Example 32, Propan-2-yl 10-[3-(4-fluorophenyl)-1,2,4-oxadiazol-5-yl]-2-[(methylcarbamoyl)amino]-4,7,8,9-tetrahydro-4,8-epimino[1,3]thiazolo[5,4-d]azocine-6(5H)-carboxylate], the “EC150 (the concentration of the compound showing a relative enzyme activity of 150%)” value was 0.27 μm.
In the case of `O=C(NCC1(O)CCOCC1)Nc1nc2c(s1)[C@@H]1COC[C@H](C2)N1c1nc2cc(Cl)ccc2o1` [Example 150, N-[(4S,8S)-10-(5-chloro-1,3-benzoxazol-2-yl)-4,7,8,9-tetrahydro-5H-4,8-epiminooxocino[5,4-d][1,3]thiazol-2-yl]-N′-[(4-hydroxyoxan-4-yl)methyl]urea], the “EC150 (the concentration of the compound showing a relative enzyme activity of 150%)” value is reported as 0.43 μm.
For `COc1cccc(-c2cnc(N3[C@@H]4COC[C@H]3c3sc(NC(=O)NCC(C)(C)O)nc3C4)o2)n1` [Example 184, N-(2-hydroxy-2-methylpropyl)-N′-{(4S,8S)-10-[5-(6-methoxypyridin-2-yl)-1,3-oxazol-2-yl]-4,7,8,9-tetrahydro-5H-4,8-epiminooxocino[5,4-d][1,3]thiazol-2-yl}urea], the “EC150 (the concentration of the compound showing a relative enzyme activity of 150%)” value was 0.91 μm.
`CCOc1cccc(-c2cnc(N3[C@@H]4COC[C@H]3c3sc(NC(=O)N[C@H]5C[C@H](O)C5)nc3C4)o2)n1` [Example 80, N-{(4S,8S)-10-[5-(6-ethoxypyridin-2-yl)-1,3-oxazol-2-yl]-4,7,8,9-tetrahydro-5H-4,8-epiminooxocino[5,4-d][1,3]thiazol-2-yl}-N′-[(1r,3S)-3-hydroxycyclobutyl]urea] was tested, and the “EC150 (the concentration of the compound showing a relative enzyme activity of 150%)” value was 0.48 μm.
For `O=C(Nc1nc2c(s1)[C@@H]1COC[C@H](C2)N1c1ncc(-c2cccc(OC(F)F)c2)o1)N[C@@H]1CCOC1` [Example 73, N-[(4S,8S)-10-{5-[3-(difluoromethoxy)phenyl]-1,3-oxazol-2-yl}-4,7,8,9-tetrahydro-5H-4,8-epiminooxocino[5,4-d][1,3]thiazol-2-yl]-N′-[(3R)-oxolan-3-yl]urea], the “EC150 (the concentration of the compound showing a relative enzyme activity of 150%)” value was 0.4 μm.
For `CNC(=O)Nc1nc2c(s1)[C@@H]1CC[C@H](C2)N1c1nc(-c2ccc(F)cc2)no1` (relative stereo) [Example 10, N-{(5R*,8S*)-9-[3-(4-fluorophenyl)-1,2,4-oxadiazol-5-yl]-5,6,7,8-tetrahydro-4H-5,8-epiminocyclohepta[d][1,3]thiazol-2-yl}-N′-methylurea], the “EC150 (the concentration of the compound showing a relative enzyme activity of 150%)” value was 1.0 μm.
With `CNC(=O)Nc1nc2c(s1)CN(c1nnc(C(F)(F)F)o1)CC2` [Example 2, N-methyl-N′-{5-[5-(trifluoromethyl)-1,3,4-oxadiazol-2-yl]-4,5,6,7-tetrahydro[1,3]thiazolo[5,4-c]pyridin-2-yl}urea] the “EC150 (the concentration of the compound showing a relative enzyme activity of 150%)” value was 1.6 μm.
For `CNC(=O)Nc1nc2c(s1)C1COCC(C2)N1c1nnc(-c2cccc(OC(C)(C)C)c2)o1` (centres unmarked) [Example 111, N-{10-[5-(3-tert-butoxyphenyl)-1,3,4-oxadiazol-2-yl]-4,7,8,9-tetrahydro-5H-4,8-epiminooxocino[5,4-d][1,3]thiazol-2-yl}-N′-methylurea], the “EC150 (the concentration of the compound showing a relative enzyme activity of 150%)” value was 2.2 μm.
`C[C@H](CO)NC(=O)Nc1nc2c(s1)CN(c1nc(C3CCCC(F)(F)C3)no1)CC2` (stereo partly drawn) [Example 87, N-{5-[3-(3,3-difluorocyclohexyl)-1,2,4-oxadiazol-5-yl]-4,5,6,7-tetrahydro[1,3]thiazolo[5,4-c]pyridin-2-yl}-N′-[(2R)-1-hydroxypropan-2-yl]urea] was tested, and the “EC150 (the concentration of the compound showing a relative enzyme activity of 150%)” value was 2.1 μm.

From patent US11981686B2, “Urea compound having substituent” (DAIICHI SANKYO COMPANY, LIMITED, priority 2019, dated 2024)
